Source: PubChem BioAssay (NCI)
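Exposure lasted 48 hours, with cells grown in 96-well plates and compounds tested at five concentrations. TGI: concentration producing complete growth inhibition.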

Key:
Assay in all cases: NCI-60 cell line screen, 48 h
786-0 renal = test system: 786-0 renal
A498 renal = test system: A498 renal
A549 NSCLC = test system: A549 NSCLC
ACHN renal = test system: ACHN renal
CCRF-CEM leukemia = test system: CCRF-CEM leukemia
DLD-1 colon = test system: DLD-1 colon
EKVX NSCLC = test system: EKVX NSCLC
HCC-2998 colon = test system: HCC-2998 colon
HCT-116 colon = test system: HCT-116 colon
HCT-15 colon = test system: HCT-15 colon
HL-60(TB) leukemia = test system: HL-60(TB) leukemia
HOP-18 NSCLC = test system: HOP-18 NSCLC
HOP-92 NSCLC = test system: HOP-92 NSCLC
HT29 colon = test system: HT29 colon
IGROV1 ovarian = test system: IGROV1 ovarian
K-562 leukemia = test system: K-562 leukemia
KM12 colon = test system: KM12 colon
KM20L2 colon = test system: KM20L2 colon
LOX IMVI melanoma = test system: LOX IMVI melanoma
LXFL 529 NSCLC = test system: LXFL 529 NSCLC
M14 melanoma = test system: M14 melanoma
M19-MEL melanoma = test system: M19-MEL melanoma
MALME-3M melanoma = test system: MALME-3M melanoma
MOLT-4 leukemia = test system: MOLT-4 leukemia
NCI-H23 lung = test system: NCI-H23 lung
NCI-H460 lung = test system: NCI-H460 lung
NCI-H522 lung = test system: NCI-H522 lung
OVCAR-5 ovarian = test system: OVCAR-5 ovarian
OVCAR-8 ovarian = test system: OVCAR-8 ovarian
RPMI-8226 leukemia = test system: RPMI-8226 leukemia
RXF 393 renal = test system: RXF 393 renal
RXF-631 renal = test system: RXF-631 renal
SF-268 CNS = test system: SF-268 CNS
SF-295 CNS = test system: SF-295 CNS
SF-539 CNS = test system: SF-539 CNS
SK-MEL-2 melanoma = test system: SK-MEL-2 melanoma
SK-MEL-28 melanoma = test system: SK-MEL-28 melanoma
SK-MEL-5 melanoma = test system: SK-MEL-5 melanoma
SK-OV-3 ovarian = test system: SK-OV-3 ovarian
SN12C renal = test system: SN12C renal
SNB-19 CNS = test system: SNB-19 CNS
SNB-75 CNS = test system: SNB-75 CNS
SR leukemia = test system: SR leukemia
SW-620 colon = test system: SW-620 colon
TK-10 renal = test system: TK-10 renal
U251 CNS = test system: U251 CNS
UACC-257 melanoma = test system: UACC-257 melanoma
UACC-62 melanoma = test system: UACC-62 melanoma
UO-31 renal = test system: UO-31 renal
XF 498 CNS = test system: XF 498 CNS
CAKI-1 renal = test system: CAKI-1 renal
COLO 205 colon = test system: COLO 205 colon
DU-145 prostate = test system: DU-145 prostate
NCI-H226 lung = test system: NCI-H226 lung
OVCAR-3 ovarian = test system: OVCAR-3 ovarian
OVCAR-4 ovarian = test system: OVCAR-4 ovarian
DMS 114 small cell lung = test system: DMS 114 small cell lung
HOP-62 NSCLC = test system: HOP-62 NSCLC

Measured: TGI

COc1cc2c[n+]3ccc4cc(OC)c(OC)cc4c3cc2cc1O
not listed: CAKI-1 renal | COLO 205 colon | DU-145 prostate | NCI-H226 lung | OVCAR-3 ovarian | OVCAR-4 ovarian | DMS 114 small cell lung | HOP-62 NSCLC
> 100 µM: all other assays above

CCOC(=O)C=C1CCC2(CC1)OCCO2
not listed: EKVX NSCLC | DMS 114 small cell lung | HOP-62 NSCLC
> 100 µM: all other assays above

CON(C)C(=O)CCCO
not listed: A498 renal | HCC-2998 colon | LOX IMVI melanoma | OVCAR-5 ovarian | SK-OV-3 ovarian | DU-145 prostate
> 100 µM: all other assays above
